This note sets out measurements from patent US12584896B2, “Process for quantification of metal amino acid chelates in solutions and solids” (Premex, Inc., priority 2018, dated 2026).

A short description of this series: pKa's of phytic acid (ionization of phosphate groups). The series is classed as physicochemical. From the text:
A liquid sample was reacted with phytic acid. The reaction between the compounds and the phytic acid was at a pH of 3.0. Phytic acid ionization began via phosphates group in the following order: (a) P1, and P3 at a pH of from about 1.5 to about 2.0; (b) P4 and P6 at a pH of from about 2.0 to about 2.5; (c) P2 and at a pH of about 2 .5; and (d) P5 at a pH of from about 3.0 to about 5.0 (see FIGS. 1 and 2).

Regarding `O=P(O)(O)O[C@H]1[C@H](OP(=O)(O)O)[C@@H](OP(=O)(O)O)[C@H](OP(=O)(O)O)[C@@H](OP(=O)(O)O)[C@H]1OP(=O)(O)O` [phytic acid], the pKa is 9.3.

In general, pKa refers to the negative logarithm of the acid dissociation constant. The low end stands for a group that gives up its proton readily, the high end for a group that holds its proton tightly.
